Data: US6689773B2, “Uracil substituted phenyl sulfamoyl carboxamides” (BASF Aktiengesellschaft, priority 2000, dated 2004)

Experiments:
Format in all cases: in vivo
[1] = system: DIGSA, Crabgrass, (Hairy) L, Digitaria sanguinalis, (L)Scop; assay: Postemergence herbicidal evaluation (Example 147); details: rating scale 0-9, two to three weeks after treatment
Procedure: (§1) Seedling plants were grown in jiffy flats for about two weeks. The test compounds were dispersed in 80/20 acetone/water mixtures containing 1.0% SUN-IT®II, a methylated seed oil, in sufficient quantities to provide the equivalent of about 0.016 to 0.032 kg per hectare of active compound when applied to the plants through a spray nozzle operating at 40 psi for a predetermined time. After spraying, the plants were placed on greenhouse benches and were cared for in accordance with conventional greenhouse procedures. Approximately two to three weeks after treatment, the seedling plants were examined and rated according to the rating scale (0-9) set forth below. Where more than one test is involved for a given compound, the data are averaged. [table] The scale is based upon a visual observation of plant stand, vigor, malformation, size, chlorosis and overall plant appearance as compared with a control. Plant species employed in these evaluations are reported by header abbreviation, common name and scientific name. [table]

[2] = system: SETVI, Green foxtail, Setaria viridis, (L.)Beau; assay: Postemergence herbicidal evaluation (Example 147); details: rating scale 0-9, two to three weeks after treatment
Procedure: as §1

[3] = system: ABUTH, Velvetleaf, Abutilon theophrasti, Medic.; assay: Postemergence herbicidal evaluation (Example 147); details: rating scale 0-9, two to three weeks after treatment
Procedure: as §1

[4] = system: IPOHE, Morningglory, Ivyleaf, Ipomoea hederacea, (L)Jacq.; assay: Postemergence herbicidal evaluation (Example 147); details: rating scale 0-9, two to three weeks after treatment
Procedure: as §1

[5] = system: ALOMY, Blackgrass, Alopecurus myosuroides; assay: Postemergence herbicidal evaluation (Example 147); details: rating scale 0-9, two to three weeks after treatment
Procedure: as §1

[6] = system: XANST, Cocklebur, Xanthium strumariam; assay: Postemergence herbicidal evaluation (Example 147); details: rating scale 0-9, two to three weeks after treatment
Procedure: as §1

[7] = system: ZEAMX, Field corn, Zea mays L.; assay: Postemergence herbicidal evaluation (Example 147); details: rating scale 0-9, two to three weeks after treatment
Procedure: as §1

[8] = system: CHEAL, Lambsquarters, Chenopodium album, L. Common; assay: Postemergence herbicidal evaluation (Example 147); details: rating scale 0-9, two to three weeks after treatment
Procedure: as §1

[9] = system: ECHCG, Barnyardgrass, Echinochloa crusgalli, (L.)Beau; assay: Postemergence herbicidal evaluation (Example 147); details: rating scale 0-9, two to three weeks after treatment
Procedure: as §1

[10] = system: TRZAW, Winter wheat, Tritium Aestivum, L. (Winter); assay: Postemergence herbicidal evaluation (Example 147); details: rating scale 0-9, two to three weeks after treatment
Procedure: as §1

[11] = system: GLXMA, Soybean, Glycine max, (L.) Merr.; assay: Postemergence herbicidal evaluation (Example 147); details: rating scale 0-9, two to three weeks after treatment
Procedure: as §1

[12] = system: AMBEL, Ragweed, Common, Ambrosia artemiisifolia, L.; assay: Postemergence herbicidal evaluation (Example 147); details: rating scale 0-9, two to three weeks after treatment
Procedure: as §1

[13] = system: DIGSA, Crabgrass, (Hairy) L, Digitaria sanguinalis, (L)Scop; assay: Preemergence herbicidal evaluation (Example 148); details: rating scale 0-9, two to four weeks after treatment
Procedure: (§2) The scale is based upon a visual observation of plant stand, vigor, malformation, size, chlorosis and overall plant appearance as compared with a control.
(§3) The herbicidal activity of the compounds of the present invention was evaluated by the following tests wherein the seeds of a variety of monocotyledonous and dicotyledonous plants were separately mixed with potting soil and planted on top of approximately one inch of soil in separate pint cups. After planting, the cups were sprayed with the selected aqueous acetone solution containing test compound in sufficient quantity to provide the equivalent of about 0.125 to 0.250 kg per hectare of test compound per cup. The treated cups were then placed on greenhouse benches, watered and cared for in accordance with conventional greenhouse procedures. From two to four weeks after treatment, the tests were terminated and each cup was examined and rated according to the rating system provided in Example 94. When more than one test was performed for a given compound, the data were averaged.

[14] = system: SETVI, Green foxtail, Setaria viridis, (L.)Beau; assay: Preemergence herbicidal evaluation (Example 148); details: rating scale 0-9, two to four weeks after treatment
Procedure: as §2, §3

[15] = system: ABUTH, Velvetleaf, Abutilon theophrasti, Medic.; assay: Preemergence herbicidal evaluation (Example 148); details: rating scale 0-9, two to four weeks after treatment
Procedure: as §2, §3

[16] = system: IPOHE, Morningglory, Ivyleaf, Ipomoea hederacea, (L)Jacq.; assay: Preemergence herbicidal evaluation (Example 148); details: rating scale 0-9, two to four weeks after treatment
Procedure: as §2, §3

[17] = system: ALOMY, Blackgrass, Alopecurus myosuroides; assay: Preemergence herbicidal evaluation (Example 148); details: rating scale 0-9, two to four weeks after treatment
Procedure: as §2, §3

[18] = system: ZEAMX, Field corn, Zea mays L.; assay: Preemergence herbicidal evaluation (Example 148); details: rating scale 0-9, two to four weeks after treatment
Procedure: as §2, §3

[19] = system: CHEAL, Lambsquarters, Chenopodium album, L. Common; assay: Preemergence herbicidal evaluation (Example 148); details: rating scale 0-9, two to four weeks after treatment
Procedure: as §2, §3

[20] = system: ECHCG, Barnyardgrass, Echinochloa crusgalli, (L.)Beau; assay: Preemergence herbicidal evaluation (Example 148); details: rating scale 0-9, two to four weeks after treatment
Procedure: as §2, §3

[21] = system: TRZAW, Winter wheat, Tritium Aestivum, L. (Winter); assay: Preemergence herbicidal evaluation (Example 148); details: rating scale 0-9, two to four weeks after treatment
Procedure: as §2, §3

[22] = system: AMBEL, Ragweed, Common, Ambrosia artemiisifolia, L.; assay: Preemergence herbicidal evaluation (Example 148); details: rating scale 0-9, two to four weeks after treatment
Procedure: as §2, §3

CCC(C)NS(=O)(=O)NC(=O)c1cc(-n2c(=O)cc(C(F)(F)F)n(C)c2=O)c(F)cc1Cl (centres unmarked) [Example 64]
7.0: Postemergence herbicidal rating TRZAW ([10]; rate 0.032 kg/ha) | Preemergence herbicidal rating ECHCG ([20]; rate 0.25 kg/ha)
4.0: Preemergence herbicidal rating ALMOY ([17]; rate 0.25 kg/ha)
6.0: Postemergence herbicidal rating TRZAW ([10]; rate 0.016 kg/ha)
9.0: Postemergence herbicidal rating SETVI ([2]; rate 0.032 kg/ha) | Postemergence herbicidal rating ABUTH ([3]; rate 0.016 kg/ha) | Postemergence herbicidal rating ABUTH ([3]; rate 0.032 kg/ha) | Postemergence herbicidal rating IPOHE ([4]; rate 0.016 kg/ha) | Postemergence herbicidal rating IPOHE ([4]; rate 0.032 kg/ha) | Postemergence herbicidal rating XANST ([6]; rate 0.016 kg/ha) | Postemergence herbicidal rating XANST ([6]; rate 0.032 kg/ha) | Postemergence herbicidal rating CHEAL ([8]; rate 0.016 kg/ha) | Postemergence herbicidal rating CHEAL ([8]; rate 0.032 kg/ha) | Postemergence herbicidal rating ECHCG ([9]; rate 0.016 kg/ha) | Postemergence herbicidal rating ECHCG ([9]; rate 0.032 kg/ha) | Postemergence herbicidal rating AMBEL ([12]; rate 0.016 kg/ha) | Postemergence herbicidal rating AMBEL ([12]; rate 0.032 kg/ha) | Preemergence herbicidal rating DIGSA ([13]; rate 0.25 kg/ha) | Preemergence herbicidal rating SETVI ([14]; rate 0.25 kg/ha) | Preemergence herbicidal rating ABUTH ([15]; rate 0.125 kg/ha) | Preemergence herbicidal rating ABUTH ([15]; rate 0.25 kg/ha) | Preemergence herbicidal rating IPOHE ([16]; rate 0.125 kg/ha) | Preemergence herbicidal rating IPOHE ([16]; rate 0.25 kg/ha) | Preemergence herbicidal rating CHEAL ([19]; rate 0.125 kg/ha) | Preemergence herbicidal rating CHEAL ([19]; rate 0.25 kg/ha) | Preemergence herbicidal rating AMBEL ([22]; rate 0.125 kg/ha) | Preemergence herbicidal rating AMBEL ([22]; rate 0.25 kg/ha)
0.0: Preemergence herbicidal rating ALMOY ([17]; rate 0.125 kg/ha) | Preemergence herbicidal rating ZEAMX ([18]; rate 0.125 kg/ha) | Preemergence herbicidal rating TRZAW ([21]; rate 0.125 kg/ha)
2.0: Preemergence herbicidal rating ZEAMX ([18]; rate 0.25 kg/ha)
5.0: Postemergence herbicidal rating DIGSA ([1]; rate 0.016 kg/ha) | Postemergence herbicidal rating DIGSA ([1]; rate 0.032 kg/ha) | Postemergence herbicidal rating ALMOY ([5]; rate 0.032 kg/ha)
3.0: Postemergence herbicidal rating ALMOY ([5]; rate 0.016 kg/ha) | Preemergence herbicidal rating ECHCG ([20]; rate 0.125 kg/ha) | Preemergence herbicidal rating TRZAW ([21]; rate 0.25 kg/ha)
7.5: Postemergence herbicidal rating ZEAMX ([7]; rate 0.016 kg/ha) | Postemergence herbicidal rating GLXMA ([11]; rate 0.016 kg/ha)
8.0: Postemergence herbicidal rating SETVI ([2]; rate 0.016 kg/ha) | Postemergence herbicidal rating ZEAMX ([7]; rate 0.032 kg/ha) | Postemergence herbicidal rating GLXMA ([11]; rate 0.032 kg/ha) | Preemergence herbicidal rating DIGSA ([13]; rate 0.125 kg/ha) | Preemergence herbicidal rating SETVI ([14]; rate 0.125 kg/ha)
